Measurements reported in US20090311237A1, “Combination therapy using a soluble hyaluronidase and a bisphosphonate” (priority 2008, published 2009).
“And” between values parts separate entries of the source, which are not always exact repeats. Equal entries are not always repeated. Where two headings read alike, the source gives them in different places.

Assay: Phase 1 Stage 1 clinical pharmacokinetics of SC ZA co-administered with rHuPH20
Format: in vivo, human
Details: for half-life / AUC(0-t) / Cmax / AUC(0-inf) / Tmax: human, serum; for half-life: read-out: T½ λz (converted); for AUC(0-inf): read-out: AUC (0-inf); for Tmax: read-out: Tmax
Experimental: A pharmacokinetic study of zoledronic acid (ZA) co-administered with rHuPH20 in human subjects was conducted. The primary objective of the study was to determine the bioavailability of zoledronic acid dosed via subcutaneous (SC) co-administration with human recombinant hyaluronidase PH20 (rHuPH20). […] The patients were administered the prescribed dosage formulations as follows: Cohorts 1-5 were administered a single subcutaneous infusion in a dosage volume of 100 ml at a rate of 3 mL/min. […] The dosing solution is administered via needle or catheter into the SC space of the left anterior thigh (midway between the anterior iliac crest and the cephalad border of the patella). For cohorts 1-5, the dosing solutions were administered by a controlled rate infusion pump at approximately 3 mL/minute. […] The dosing solutions were administered by syringe push bolus injection. […] Serum concentration of ZA was determined using a qualified LC-MS-MS assay after derivatization with diazomethane (Zhu, L S et al. (2006) Rapid Commun. […] The assay range was from 2.0 to 400 ng/mL with a lower limit of quantitation (LLOQ) at 2.0 ng/mL. […] Non-compartmental analysis was used for derivation of primary and secondary pharmacokinetic (PK) parameters. […] Summary statistics (mean, standard deviation, and median) were calculated using JMP or Microsoft Excel.

[1] = ZA 2 mg SC + 24000 U rHuPH20, mean, n=3
[2] = ZA 2 mg SC + 24000 U rHuPH20, median, n=3
[3] = ZA 2 mg SC, 100 mL, 24000 Units rHuPH20, n=3
[4] = ZA 5 mg SC + 24000 U rHuPH20, individual subjects
[5] = ZA 5 mg SC + 24000 U rHuPH20, mean, n=3
[6] = ZA 5 mg SC + 24000 U rHuPH20, median, n=3
[7] = ZA 5 mg SC, 100 mL, 24000 Units rHuPH20, n=3
[8] = ZA 0.25-5 mg SC, 100 mL, 24000 Units rHuPH20, n=15
[9] = sc, 0.0196 mg/kg, Subj 27, ZA 0.0196 mg/kg SC, inf […], PH20 23976 U
[10] = sc, 0.0339 mg/kg, Subj 29, ZA 0.0339 mg/kg SC, inf 0.556 hr, PH20 24000 U
[11] = sc, 0.0608 mg/kg, Subj 68, ZA 0.0608 mg/kg SC, inf […], PH20 2880 U
[12] = sc, 0.0653 mg/kg, Subj 41, ZA 0.0653 mg/kg SC, inf […], PH20 12216 U
[13] = sc, 0.0691 mg/kg, Subj 39, ZA 0.0691 mg/kg SC, inf 0.552 hr, PH20 23856 U
[14] = sc, 0.0706 mg/kg, Subj 38, ZA 0.0706 mg/kg SC, inf 0.554 hr, PH20 23952 U
[15] = sc, 0.0717 mg/kg, Subj 67, ZA 0.0717 mg/kg SC, inf […], PH20 2880 U
[16] = sc, 0.0776 mg/kg, Subj 70, ZA 0.0776 mg/kg SC, inf […], PH20 2928 U
[17] = sc, 0.0781 mg/kg, Subj 71, ZA 0.0781 mg/kg SC, inf […], PH20 6000 U

## O=P(O)(O)C(O)(Cn1ccnc1)P(=O)(O)O [ZA, 1-hydroxy-2-(1H-imidazol-1-yl)ethylidene-1,1-bisphosphonic acid]
ZA 2 mg SC + 24000 U rHuPH20, individual subjects
  T½elim: 12.72 h (2×) and 22.02 h
[1]
  AUC (0-∞)/D: 0.00791 kg·h/mL
  Cmax/D: 0.00176 kg/mL
  T½elim: 15.82 h
[2]
  AUC (0-∞)/D: 0.00809 kg·h/mL
  Cmax/D: 0.00175 kg/mL
  T½elim: 12.72 h
ZA 2 mg SC, 100 mL, 24000 Units rHuPH20, individual subjects
  MAT (mean absorption time = SC MRT − IV MRT): 0.47 h and 0.94 h and 1.39 h
[3]
  MAT, Mean for the dose group: 0.93 h
  MAT, Median for the dose group: 0.94 h
[4]
  AUC (0-12h): 477.36 ng·h/mL and 575.89 ng·h/mL
  AUC (0-∞): 729.31 ng·h/mL
  AUC (0-∞)/D: 0.00789 kg·h/mL and 0.00901 kg·h/mL and 0.01049 kg·h/mL
  Cmax/D: 0.00167 kg/mL and 0.00165 kg/mL and 0.00211 kg/mL
  MRT: 13.81 h
  T½elim: 23.36 h and 24.45 h and 26.05 h
[5]
  AUC (0-∞)/D: 0.00913 kg·h/mL
  Cmax/D: 0.00181 kg/mL
  T½elim: 24.62 h
[6]
  AUC (0-∞)/D: 0.00901 kg·h/mL
  Cmax/D: 0.00167 kg/mL
  T½elim: 24.45 h
ZA 5 mg SC, 100 mL, 24000 Units rHuPH20, individual subjects
  MAT (mean absorption time = SC MRT − IV MRT): 1.74 h and 4.61 h and 3.46 h
[7]
  MAT, Mean for the dose group: 3.27 h
  MAT, Median for the dose group: 3.46 h
[8]
  MAT, Mean for all dose groups: 1.64 h
  MAT, Median for all dose groups: 1.39 h
0.082 mg/kg, Subj 63, ZA 0.0820 mg/kg SC, inf 0.250 hr, PH20 6000 U
  half-life: 20.5 h
sc, 0.0196 mg/kg, AUC (0-12 h), Subj 27, ZA 0.0196 mg/kg SC, inf […], PH20 23976 U
  AUC(0-t): 104 ng·h/mL
sc, 0.0196 mg/kg, AUC (0-24 h), Subj 27, ZA 0.0196 mg/kg SC, inf […], PH20 23976 U
  AUC(0-t): 116 ng·h/mL
sc, 0.0196 mg/kg, AUC (0-48 h), Subj 27, ZA 0.0196 mg/kg SC, inf […], PH20 23976 U
  AUC(0-t): 119 ng·h/mL
[9]
  Cmax: 25 ng/mL
  AUC(0-inf): 120 ng·h/mL
  Tmax: 0.72 h
sc, 0.0196 mg/kg
  half-life: 6.53 h
sc, 0.0339 mg/kg, AUC (0-12 h), Subj 29, ZA 0.0339 mg/kg SC, inf 0.556 hr, PH20 24000 U
  AUC(0-t): 217 ng·h/mL
sc, 0.0339 mg/kg, AUC (0-24 h), Subj 29, ZA 0.0339 mg/kg SC, inf 0.556 hr, PH20 24000 U
  AUC(0-t): 231 ng·h/mL
sc, 0.0339 mg/kg, AUC (0-48 h), Subj 29, ZA 0.0339 mg/kg SC, inf 0.556 hr, PH20 24000 U
  AUC(0-t): 236 ng·h/mL
[10]
  Cmax: 62.8 ng/mL
  AUC(0-inf): 241 ng·h/mL
  Tmax: 1.29 h
sc, 0.0608 mg/kg, AUC (0-12 h), Subj 68, ZA 0.0608 mg/kg SC, inf […], PH20 2880 U
  AUC(0-t): 456 ng·h/mL
sc, 0.0608 mg/kg, AUC (0-24 h), Subj 68, ZA 0.0608 mg/kg SC, inf […], PH20 2880 U
  AUC(0-t): 503 ng·h/mL
sc, 0.0608 mg/kg, AUC (0-48 h), Subj 68, ZA 0.0608 mg/kg SC, inf […], PH20 2880 U
  AUC(0-t): 557 ng·h/mL
[11]
  Cmax: 144 ng/mL
  AUC(0-inf): 630 ng·h/mL
  Tmax: 1 h
sc, 0.0608 mg/kg
  half-life: 27.9 h
sc, 0.0653 mg/kg, AUC (0-12 h), Subj 41, ZA 0.0653 mg/kg SC, inf […], PH20 12216 U
  AUC(0-t): 487 ng·h/mL
sc, 0.0653 mg/kg, AUC (0-24 h), Subj 41, ZA 0.0653 mg/kg SC, inf […], PH20 12216 U
  AUC(0-t): 531 ng·h/mL
sc, 0.0653 mg/kg, AUC (0-48 h), Subj 41, ZA 0.0653 mg/kg SC, inf […], PH20 12216 U
  AUC(0-t): 597 ng·h/mL
[12]
  Cmax: 141 ng/mL
  AUC(0-inf): 736 ng·h/mL
  Tmax: 1.01 h
sc, 0.0653 mg/kg
  half-life: 42.8 h
sc, 0.0691 mg/kg, AUC (0-12 h), Subj 39, ZA 0.0691 mg/kg SC, inf 0.552 hr, PH20 23856 U
  AUC(0-t): 574 ng·h/mL
sc, 0.0691 mg/kg, AUC (0-24 h), Subj 39, ZA 0.0691 mg/kg SC, inf 0.552 hr, PH20 23856 U
  AUC(0-t): 619 ng·h/mL
sc, 0.0691 mg/kg, AUC (0-48 h), Subj 39, ZA 0.0691 mg/kg SC, inf 0.552 hr, PH20 23856 U
  AUC(0-t): 667 ng·h/mL
[13]
  Cmax: 147 ng/mL
  AUC(0-inf): 727 ng·h/mL
  Tmax: 0.79 h
sc, 0.0691 mg/kg
  half-life: 26.1 h
sc, 0.0706 mg/kg, AUC (0-12 h), Subj 38, ZA 0.0706 mg/kg SC, inf 0.554 hr, PH20 23952 U
  AUC(0-t): 477 ng·h/mL
sc, 0.0706 mg/kg, AUC (0-24 h), Subj 38, ZA 0.0706 mg/kg SC, inf 0.554 hr, PH20 23952 U
  AUC(0-t): 524 ng·h/mL
sc, 0.0706 mg/kg, AUC (0-48 h), Subj 38, ZA 0.0706 mg/kg SC, inf 0.554 hr, PH20 23952 U
  AUC(0-t): 580 ng·h/mL
[14]
  Cmax: 117 ng/mL
  AUC(0-inf): 637 ng·h/mL
  Tmax: 1.3 h
sc, 0.0717 mg/kg, AUC (0-12 h), Subj 67, ZA 0.0717 mg/kg SC, inf […], PH20 2880 U
  AUC(0-t): 565 ng·h/mL
sc, 0.0717 mg/kg, AUC (0-24 h), Subj 67, ZA 0.0717 mg/kg SC, inf […], PH20 2880 U
  AUC(0-t): 630 ng·h/mL
sc, 0.0717 mg/kg, AUC (0-48 h), Subj 67, ZA 0.0717 mg/kg SC, inf […], PH20 2880 U
  AUC(0-t): 683 ng·h/mL
[15]
  Cmax: 156 ng/mL
  AUC(0-inf): 725 ng·h/mL
  Tmax: 0.74 h
sc, 0.0717 mg/kg
  half-life: 18.3 h
sc, 0.0776 mg/kg, AUC (0-12 h), Subj 70, ZA 0.0776 mg/kg SC, inf […], PH20 2928 U
  AUC(0-t): 573 ng·h/mL
sc, 0.0776 mg/kg, AUC (0-24 h), Subj 70, ZA 0.0776 mg/kg SC, inf […], PH20 2928 U
  AUC(0-t): 616 ng·h/mL
sc, 0.0776 mg/kg, AUC (0-48 h), Subj 70, ZA 0.0776 mg/kg SC, inf […], PH20 2928 U
  AUC(0-t): 658 ng·h/mL
[16]
  Cmax: 215 ng/mL
  AUC(0-inf): 690 ng·h/mL
  Tmax: 0.68 h
sc, 0.0776 mg/kg
  half-life: 19.4 h
sc, 0.0781 mg/kg, AUC (0-12 h), Subj 71, ZA 0.0781 mg/kg SC, inf […], PH20 6000 U
  AUC(0-t): 592 ng·h/mL
sc, 0.0781 mg/kg, AUC (0-24 h), Subj 71, ZA 0.0781 mg/kg SC, inf […], PH20 6000 U
  AUC(0-t): 629 ng·h/mL
sc, 0.0781 mg/kg, AUC (0-48 h), Subj 71, ZA 0.0781 mg/kg SC, inf […], PH20 6000 U
  AUC(0-t): 665 ng·h/mL
[17]
  Cmax: 198 ng/mL
  AUC(0-inf): 693 ng·h/mL
  Tmax: 0.88 h
